Experimental data taken from patent publication US20150258107A1, “METHODS AND COMPOSITIONS FOR TREATING DEPRESSION” (DemeRx, Inc., priority 2014, published 2015).
“Also recorded” adds a separate entry of the source.

What was measured:
[1] = Human pharmacokinetic study, single oral tablet, fasting healthy volunteers (serum levels); type: in vivo; settings: fasting; for Cmax: human, serum, oral
Protocol: In double blind studies, fasting healthy volunteers (6 per cohort) were treated once orally with a tablet of noribogaine HCl. In escalating cohorts, the volunteers received 3 mg, 10 mg, 30 mg or 60 mg noribogaine.

[2] = tested on: healthy, drug-free male volunteers; assay: Pupillometry (pupillary miosis) in healthy volunteers; type: in vivo, human; settings: 3, 10, 30, 60 mg single oral dose
Protocol: Pulse oximetry and capnography data were collected continuously using a GE Carescape B650 monitoring system from 2 hours prior to dosing and until six hours after dosing, and thereafter at 12, 24, 48 and 72 hours post-dosing. […] Pupillary miosis was assessed by pupillometry.
Summary statistics (means, standard deviations, and coefficients of variation) were determined for each dose group for safety laboratory test data, ECG and pharmacokinetic parameters, and pharmacodynamic variables. Categorical variables were analysed using counts and percentages. Dose-proportionality of AUC and Cmax was assessed using linear regression. The effect of dose on pharmacodynamic parameter values over time was assessed using two-factor analysis of variance (ANOVA). Pairwise comparisons (with Tukey-Kramer adjustment) between each dose group to the placebo were conducted at each time point using the least squares estimates obtained from the ANOVA, using SAS Proc Mixed (SAS ver 6.0).

[3] = tested on: healthy, drug-free male volunteers; assay: Cold pressor test in healthy volunteers; type: in vivo, human; settings: 3, 10, 30, 60 mg single oral dose; hand immersion duration and VAS pain scores
Protocol: Analgesic effect was assessed based on duration of hand immersion in ice water and on visual analog scale (VAS) pain scores upon hand removal from the water bath.
(§1) Safety and tolerability of noribogaine were tested in the group of volunteers from Example 9. […] Safety evaluations included clinical monitoring, recording of adverse events (AEs), safety laboratory tests, vital signs, ECG telemetry from −2 h to 6 h after dosing, and 12-lead electrocardiograms (ECGs) up to 216 hours post-dosing.

[4] = tested on: healthy, drug-free male volunteers; assay: Safety and tolerability of noribogaine in healthy volunteers; type: in vivo, human
Protocol: as §1

[5] = tested on: opioid-dependent participants; assay: Treatment emergent adverse events in opioid-dependent participants; type: in vivo, human
Protocol: The efficacy of noribogaine in humans was evaluated in opioid-dependent participants in a randomized, placebo-controlled, double-blind trial. […] See U.S. application Ser. No. 14/214,157, filed Mar. 14, 2014 and Ser. No. 14/346,655, filed Mar. 21, 2014, which are incorporated herein by reference in their entireties.
(§2) Three cohorts of nine (9) subjects (6 administered noribogaine and 3 administered placebo in each cohort) were evaluated for tolerability, pharmacokinetics, and efficacy. Cohort 1 received a single dose of 60 mg noribogaine or placebo. Cohort 2 received a single dose of 120 mg noribogaine or placebo. Cohort 3 received a single dose of 180 mg noribogaine or placebo. […] Headaches were frequent in the placebo and 60 mg noribogaine treatment groups, but were attenuated in the 120 mg and 180 mg dose groups.

[6] = Pharmacokinetics in opioid-dependent patients (Phase IB study); type: in vivo, human; settings: 60, 120, 180 mg
Protocol: as §2

[7] = tested on: opioid-dependent participants; assay: Time to resumption of opioid substitution treatment (OST) and opiate withdrawal scales; type: in vivo, human
Protocol: as §2
Patients were evaluated based on the Clinical Opiate Withdrawal Scale (COWS), Subjective Opiate Withdrawal Scale (SOWS), and Objective Opiate Withdrawal Scale (OOWS) scoring systems over the period of time between administration of noribogaine (or placebo) until resumption of OST. These scales are outlined in Guidelines for the Psychosocially Assisted Pharmacological Treatment of Opioid Dependence, World Health Organization, Geneva (2009), Annex 10, which is incorporated herein by reference in its entirety. The scales measure the intensity of withdrawal symptoms, based on clinical, subjective, and objective indicia.

[8] = tested on: opioid-dependent participants; assay: QT interval in opioid-dependent participants; type: in vivo, human; settings: 60, 120, 180 mg, first 24 hours post administration
Protocol: Patients' QT intervals were evaluated at regular time points throughout the study.

## CC[C@H]1CC2C[C@H]3c4[nH]c5ccc(O)cc5c4CCN(C2)C13 [noribogaine]
[1]; single dose of 3 mg
  Cmax: 5.2 ng/mL
  mean AUC/24 hr: 3.1 ng/mL
[1]; single dose of 10 mg
  Cmax: 14.5 ng/mL
  mean AUC/24 hr: 10.6 ng/mL
[1]; single dose of 30 mg
  Cmax: 55.9 ng/mL
  mean AUC/24: 29.2 ng/mL
[1]; single dose of 60 mg
  Cmax: 116 ng/mL
  mean AUC/24: 61 ng/mL
[2]
  Pupillary constriction: no evidence of pupillary constriction
[3]
  Analgesic effect in the cold pressor test: no analgesic effect
[4]; 3 mg dose group
  Adverse events reported: five adverse events were reported by two subjects
[4]; 10 mg dose group
  Adverse events reported: one adverse event was reported by single subjects
[4]; 10 mg, 24 hours post-dosing
  Single increase in QTcF (one subject): > 60 ms
[4]; 30 mg dose group
  Adverse events reported: one adverse event was reported by single subjects
[4]; 3-60 mg single oral dose
  Oximetry, capnography, respiratory rate: no changes in oximetry or capnography, or changes in respiratory rate
  QTcF values >500 msec: no QTcF values>500 msec at any time
  Vital signs and safety laboratory tests: no changes in vital signs or safety laboratory tests of note
[4]; Dose 3 mg
  Adverse events, Mild: Back pain; also recorded: Dizziness; also recorded: Epistaxis; also recorded: Headache
  Adverse events, Moderate: Headache
[4]; Dose 10 mg
  Adverse events, Mild: Headache
[4]; Dose 30 mg
  Adverse events, Mild: Headache
[5]; 60 mg (N = 6)
  TEAE: Catheter Site Infection: 0
  TEAE: Catheter Site Pain: 0
  TEAE: Catheter Site Related Reaction: 0
  TEAE: Cellulitis: 0
  TEAE: Diarrhoea: 0
  TEAE: Dry Mouth: 0
  TEAE: Ear and Labyrinth Disorders: 0
  TEAE: Epistaxis: 0
  TEAE: Euphoric Mood: 0
  TEAE: General Disorders and Administration Site Conditions: 0
  TEAE: Hyperaesthesia: 0
  TEAE: Infections and Infestations: 0
  TEAE: Limb Discomfort: 0
  TEAE: Malaise: 0
  TEAE: Nausea: 0
  TEAE: Oropharyngeal Pain: 0
  TEAE: Pseudoparalysis: 0
  TEAE: Respiratory, Thoracic and Mediastinal Disorders: 0
  TEAE: Rhinorrhoea: 0
  TEAE: Skin Discomfort: 0
  TEAE: Skin Irritation: 0
  TEAE: Skin and Subcutaneous Tissue Disorders: 0
  TEAE: Somnoience: 0
  TEAE: Tinnitus: 0
  TEAE: Tremor: 0
  TEAE: Urinary Tract Infection: 0
  TEAE: Vomiting: 0
[5]; 120 mg (N = 6)
  TEAE: Back Pain: 0
  TEAE: Catheter Site Infection: 0
  TEAE: Catheter Site Related Reaction: 0
  TEAE: Depressed Mood: 0
  TEAE: Dry Eye: 0
  TEAE: Dyspepsia: 0
  TEAE: Euphoric Mood: 0
  TEAE: Limb Discomfort: 0
  TEAE: Malaise: 0
  TEAE: Musculoskeletal and Connective Tissue Disorders: 0
  TEAE: Psychiatric Disorders: 0
  TEAE: Somnoience: 0
  TEAE: Urinary Tract Infection: 0
[5]; 180 mg (N = 6)
  TEAE: Catheter Site Infection: 0
  TEAE: Catheter Site Pain: 0
  TEAE: Depressed Mood: 0
  TEAE: Diarrhoea: 0
  TEAE: Dry Eye: 0
  TEAE: Dyspepsia: 0
  TEAE: Ear and Labyrinth Disorders: 0
  TEAE: Epistaxis: 0
  TEAE: Euphoric Mood: 0
  TEAE: Hyperaesthesia: 0
  TEAE: Malaise: 0
  TEAE: Pseudoparalysis: 0
  TEAE: Psychiatric Disorders: 0
  TEAE: Respiratory, Thoracic and Mediastinal Disorders: 0
  TEAE: Rhinorrhoea: 0
  TEAE: Skin Discomfort: 0
  TEAE: Skin Irritation: 0
  TEAE: Skin and Subcutaneous Tissue Disorders: 0
  TEAE: Somnoience: 0
  TEAE: Tinnitus: 0
  TEAE: Tremor: 0
[5]; single dose 60, 120 or 180 mg
  Adverse effects incl. hallucinatory effects: Few adverse effects of noribogaine were observed in any of the participants, including no hallucinatory effects
[6]
  Dose dependence of maximum serum concentration (Cmax): increased in a dose-dependent manner
[7]; 120 mg
  Withdrawal symptoms (COWS, OOWS, SOWS, first six hours): generally experienced fewer withdrawal symptoms than the other patients
[7]; single 120 mg dose
  Average time to resumption of opioids: greater than 20 hours
[8]
  QT interval prolongation (ΔQTc1): dose-dependent increase in QT interval prolongation
